US9278107B2, “Antibacterial agent composition and antiviral agent composition comprising silicon-containing compound; antibacterializing method, cleaning/mouth rinsing method; method for fixing antibacterial agent and antiviral agent” (Hiroshima University, priority 2008, dated 2016)

Experiments:
[1] = test system: Escherichia coli WP2uvrA and Salmonella typhimurium TA series strains (TA100, TA1535, TA98 and TA1537); details: positive control
[2] = test system: influenza virus A A/swan/Shimane/499/83(H5N3); assay type: cell-based, influenza virus A (avian); details: reacted with virus at room temperature for 3 minutes, diluted with DMEM, MDCK(+) cells, TCID50; (20 ppm)
[3] = test system: atypical (swine) influenza virus (type H1N1); assay type: cell-based

SMILES	number of reverse mutant colonies as compared with negative control [1]	EtAC dilution at which it is still effective [2] [%]	virus inactivating effect [3]
NC(=O)C(=Cc1ccc([N+](=O)[O-])o1)c1ccco1 [2-(2-furyl)-3-(5-nitro-2-furyl)acrylamide]	remarkable increase	–	–
CCCCCCCCCCCCCCCCCC[N+](C)(C)CCC[Si](OCC)(OCC)OCC.[Cl-] [EtAC, octadecyldimethyl(3-triethoxysilylpropyl)ammonium chloride]	–	0.002	highly significant effects are found
[N-]=[N+]=[N-] [sodium azide]	remarkable increase	–	–
Cl.Nc1c2ccccc2nc2ccccc12 [9-Aminoacridine hydrochloride]	remarkable increase	–	–
